Measurements published in paper PMC5127189 (Scientific Reports, 2016).

Columns and labels:
BEL-7402 cells = test: MTT cytotoxicity assay; format: cell-based, human; settings: BEL-7402, 48 h; for Inhibitory rates (%): footnote a: 20 μM, footnotes b, c (salts, cisplatin) cut off
Protocol: (§1) The cytotoxic activity of the L^a–L^d and complexes 1–14 were tested against a panel of cell lines such as Hep-G2, NCI-H460, SK-OV-3, HCT-8, BEL-7402 cells, and one normal cell line, HL-7702, and cell viability was determined using the MTT assay. Cisplatin was used as the positive control.

SK-OV-3 cells = test: MTT cytotoxicity assay; format: cell-based, human; settings: SK-OV-3, 48 h; for Inhibitory rates (%): footnote a: 20 μM, footnotes b, c (salts, cisplatin) cut off
Protocol: as §1

HCT-8 cells = test: MTT cytotoxicity assay; format: cell-based, human; settings: HCT-8, 48 h; for Inhibitory rates (%): footnote a: 20 μM, footnotes b, c (salts, cisplatin) cut off
Protocol: as §1

NCI-H460 cells = test: MTT cytotoxicity assay; format: cell-based, human; settings: NCI-H460, 48 h; for Inhibitory rates (%): footnote a: 20 μM, footnotes b, c (salts, cisplatin) cut off
Protocol: as §1

Hep-G2 cells [1] = settings: Hep-G2, 48 h; for Inhibitory rates (%): footnote a: 20 μM, footnotes b, c (salts, cisplatin) cut off
Protocol: as §1

HL-7702 cells = test: MTT cytotoxicity assay, normal cell line; format: cell-based, human; settings: HL-7702, 48 h; for Inhibitory rates (%): footnote a: 20 μM, footnotes b, c (salts, cisplatin) cut off
Protocol: as §1

[2] = test system: c-kit-2 (DNA, G4) CGGGCGGGCGCTAGGGAGGGT; test: fluorescent intercalator displacement (FID); parameters: unit not given here; settings: thiazole orange displaced
[3] = test system: Pu22 (DNA, G4) TGAGGGTGGGTAGGGTGGGTAA; test: fluorescent intercalator displacement (FID); settings: K+ 100 mM (TBS); 10 mM Tris, pH 7.35 (TBS as defined in Table 4); thiazole orange displaced
[4] = test system: Pu27 (DNA, G4) TGGGGAGGGTGGGGAGGGTGGGGAAGG; test: fluorescent intercalator displacement (FID); settings: K+ 100 mM (TBS); 10 mM Tris, pH 7.35 (TBS as defined in Table 4); thiazole orange displaced
[5] = test system: HTG21 (DNA, G4) GGGTTAGGGTTAGGGTTAGGG; test: fluorescent intercalator displacement (FID); parameters: unit not given here; settings: thiazole orange displaced
[6] = test system: c-kit-1 (DNA, G4) CGGGCGGGCACGAGGGAGGGT; test: fluorescent intercalator displacement (FID); settings: K+ 100 mM (TBS); 10 mM Tris, pH 7.35 (TBS as defined in Table 4); thiazole orange displaced
[7] = test system: ds26 (DNA, duplex) CAATCGGATCGAATTCGATCCGATTG; test: fluorescent intercalator displacement (FID); parameters: unit not given here; settings: thiazole orange displaced
[8] = test system: Pu22 (DNA, G4) TGAGGGTGGGTAGGGTGGGTAA; test: fluorescent intercalator displacement (FID); parameters: unit not given here; settings: thiazole orange displaced
[9] = test system: c-kit-1 (DNA, G4) CGGGCGGGCACGAGGGAGGGT; test: fluorescent intercalator displacement (FID); parameters: unit not given here; settings: thiazole orange displaced
[10] = test system: Pu27 (DNA, G4) TGGGGAGGGTGGGGAGGGTGGGGAAGG; test: fluorescent intercalator displacement (FID); parameters: unit not given here; settings: thiazole orange displaced
Hep-G2 cells [11] = test: Cellular uptake of metal by ICP-MS; format: cell-based, human; settings: Hep-G2, 24 h; 3 5 μM, 6 14 μM, 7 16 μM, 8 10 μM, 10 12 μM, 11 6 μM, cisplatin 10 μM
Protocol: In order to understand the uptake and distribution of cisplatin, complexes 1–6, 7, 8, 10 and 11 in Hep-G2 cells, an ICP-MS assay was performed to quantify the amount of metal (Pt, Ni or Pd) taken up by the cells.

[12] = Body weight in the BEL-7402 xenograft study
Protocol: To investigate the efficacy of 3 to inhibit tumor growth in vivo, a mouse model of human hepatoma (BEL-7402) xenograft was used. The tumor-bearing nude mice received treatment when the tumor size was between 100 and 160 mm^3. The mice were treated with 3 at 16 and 8 mg/kg two times every day, and treatment of cisplatin with 2 mg/kg/2days as the positive control.
(1 picture or pasted object on this page, not shown here)

[13] = test system: human hepatoma (BEL-7402) xenograft; test: In vivo antitumor activity, BEL-7402 xenograft model; parameters: species or system nude mice; settings: cisplatin, 2 mg/kg/2days ip; for Tumor Volume (end): day 18, 2 mg/kg
Protocol: Animal used, acute toxicity studies and antitumor activity toward BEL-7402 in vivo of complex 3 (16 and 8 mg/kg, two time a day,17 days (ip)), complex 6 (3.2 and 1.6 mg/kg/ day, 17 days) and cisplatin (2 mg/kg/2days), were similar to that reported by Chen[43][80]. BEL-7402 xenograft mouse models were purchased from Beijing HFK Bioscience Co., Ltd (Beijing, China, approval No. SCXK 2014-004). The animal procedures were approved by the Institute of Radiation Medicine Chinese Academy of Medical Sciences (Tian Jin, China, approval No. SYXK 2014-0002). And all of the experimental procedures were carried out in accordance with the NIH Guidelines for the Care and Use of Laboratory Animals. Animal experiments were approved by the Animal Care and Use Committee of Institute of Radiation Medicine Chinese Academy of Medical Sciences.

Hep-G2 cells [14] = test: Distribution of metal in nuclear and mitochondrial fractions (ICP-MS); format: cell-based, human; settings: Hep-G2, 24 h
Protocol: The distributions of metal (cisplatin, complexes 1–6, 7, 8, 10 and 11) in the nuclear fraction and mitochondrial fractions of Hep-G2 cells were studied after exposure of Hep-G2 cells to 1–6, 7, 8, 10, 11 and cisplatin for 24 h according to our previous reports. […] Taken together, their difference of metal (Pt, Ni or Pd) distribution for complexes 1–6, 7, 8, 10, 11 and cisplatin could be attributed to their differences in cytotoxicity and the apoptotic pathways in Hep-G2 cells.

[15] = test system: HTG21 (DNA, G4) GGGTTAGGGTTAGGGTTAGGG; test: fluorescent intercalator displacement (FID); settings: K+ 100 mM (TBS); 10 mM Tris, pH 7.35 (TBS as defined in Table 4); thiazole orange displaced
[16] = test system: ds26 (DNA, duplex) CAATCGGATCGAATTCGATCCGATTG; test: fluorescent intercalator displacement (FID); settings: K+ 100 mM (TBS); 10 mM Tris, pH 7.35 (TBS as defined in Table 4); thiazole orange displaced

Molecule: O.O.O.O.O.O.[Cl][Ni][Cl] [NiCl2·6H2O, reference compound]
- Inhibitory rates (%) (BEL-7402 cells): 11.28 ± 1.08%
- Inhibitory rates (%) (SK-OV-3 cells): 20.88 ± 0.61%
- Inhibitory rates (%) (HCT-8 cells): 12.75 ± 1.09%
- Inhibitory rates (%) (NCI-H460 cells): 10.44 ± 1.82%
- Inhibitory rates (%) (Hep-G2 cells [1]): 15.06 ± 1.09%
- Inhibitory rates (%) (HL-7702 cells): 17.03 ± 1.16%

Molecule: COC1c2c([c-]ccc2Cl)-c2nccc3cccc1c23.CS(C)=O.[Cl-].[Pt+2] (stereo not shown)
- c-kit-2DC50 [2]: 79.69
- Pu22DC50 [3]: 74.91
- Pu27DC50 [4]: 33.15
- HTG21DC50 [5]: 55.16
- c-kit-1DC50 [6]: 79.95
- ds26DC50 [7]: 91.48

Molecule: Nc1cccc2c1C(=O)c1cccc3ccnc-2c13.[Cl-].[Cl-].[Pd+2]
- Pu22DC50 [8]: 89.64
- c-kit-2DC50 [2]: > 100
- c-kit-1DC50 [9]: 78.46
- Pu27DC50 [10]: 42.51
- HTG21DC50 [5]: 49.08
- ds26DC50 [7]: 90.63

Molecule: cis-Pt(DMSO)2Cl2 [reference compound]
- Inhibitory rates (%) (BEL-7402 cells): 10.74 ± 0.95%
- Inhibitory rates (%) (SK-OV-3 cells): 15.11 ± 1.17%
- Inhibitory rates (%) (HCT-8 cells): no activity
- Inhibitory rates (%) (NCI-H460 cells): no activity
- Inhibitory rates (%) (Hep-G2 cells [1]): 17.83 ± 0.57%
- Inhibitory rates (%) (HL-7702 cells): no activity

Molecule: O=C1c2c(Cl)cc[c]3c2-c2c4c1cccc4cc[n+]2[Pt-2]31[NH2+]CCC[NH2+]1.[Cl-] (stereo not shown) [compound 9, [Pt(L^c)(pn)]Cl]
- IC50 (BEL-7402 cells): 45 ± 0.86 µM
- Inhibitory rates (%) (BEL-7402 cells): 40.64 ± 0.85%
- IC50 (SK-OV-3 cells): 30.4 ± 1.19 µM
- Inhibitory rates (%) (SK-OV-3 cells): 36.74 ± 1.21%
- IC50 (HCT-8 cells): 25.2 ± 1.82 µM
- Inhibitory rates (%) (HCT-8 cells): 40.89 ± 1.79%
- IC50 (NCI-H460 cells): 25.1 ± 1.09 µM
- Inhibitory rates (%) (NCI-H460 cells): 47.28 ± 1.07%
- IC50 (Hep-G2 cells [1]): 15.9 ± 2.11 µM
- Inhibitory rates (%) (Hep-G2 cells [1]): 58.11 ± 2.05%
- IC50 (HL-7702 cells): 80 ± 1.02 µM
- Inhibitory rates (%) (HL-7702 cells): 39.56 ± 1.01%

Molecule: [Cl][Pd][Cl] [PdCl2, reference compound]
- Inhibitory rates (%) (BEL-7402 cells): 18.59 ± 1.77%
- Inhibitory rates (%) (SK-OV-3 cells): 19.02 ± 1.04%
- Inhibitory rates (%) (HCT-8 cells): 15.05 ± 1.84%
- Inhibitory rates (%) (NCI-H460 cells): 9.91 ± 1.49%
- Inhibitory rates (%) (Hep-G2 cells [1]): 20.14 ± 1.18%
- Inhibitory rates (%) (HL-7702 cells): 18.24 ± 1.33%

Molecule: N.N.[Cl][Pt][Cl] [Cisplatin, cisplatin, reference compound]
- IC50 (BEL-7402 cells): 12.7 ± 0.94 µM
- Inhibitory rates (%) (BEL-7402 cells): 65.82 ± 1.11%
- IC50 (SK-OV-3 cells): 14.1 ± 1.07 µM
- Inhibitory rates (%) (SK-OV-3 cells): 58.06 ± 1.03%
- IC50 (HCT-8 cells): 16.3 ± 1.54 µM
- Inhibitory rates (%) (HCT-8 cells): 56.07 ± 1.67%
- IC50 (NCI-H460 cells): 18.1 ± 1.26 µM
- Inhibitory rates (%) (NCI-H460 cells): 59.13 ± 1.35%
- cellular accumulation of metal (Pt) (Hep-G2 cells [11]): 4.89 ± 0.43 nmol platinum/10^6 cells
- body weight loss during treatment (in words) ([12]; BEL-7402 xenograft mice): severe body weight loss
- Body Weight (end) ([12]; cisplatin, 2 mg/kg/2days ip): 19.6 ± 0.9 g
- Body Weight (start) ([12]; cisplatin, 2 mg/kg/2days ip): 22.5 ± 1.1 g
- RBW (%) (end) ([12]; cisplatin, 2 mg/kg/2days ip): 87.11 ± 4.8%
- IC50 (Hep-G2 cells [1]): 9.65 ± 0.87 µM
- Inhibitory rates (%) (Hep-G2 cells [1]): 68.71 ± 0.56%
- Tumor Volume (start) [13]: 104.79 ± 32.12 mm^3
- average tumor weight (mean ± SD g) [13]: 0.52 ± 0.29 g
- Tumor Volume (end) [13]: 566.82 ± 331.08 mm^3
- Tumor Volume (end) ([13]; listed as cisplatin): 566 mm^3
- inhibition of tumor growth (%) / Inhibition Ratio ([13]; tumor weight): 75.9%
- distribution of metal in nuclear and mitochondrial fractions (Hep-G2 cells [14]): mainly accumulated in the mitochondrial fraction
- IC50 (HL-7702 cells): 12.3 ± 1.19 µM
- Inhibitory rates (%) (HL-7702 cells): 63.09 ± 1.35%

Molecule: NCCN [en, 1,2-ethylenediamine, reference compound]
- Inhibitory rates (%) (SK-OV-3 cells): 18.42 ± 0.98%
- Inhibitory rates (%) (HCT-8 cells): 16.45 ± 1.92%
- Inhibitory rates (%) (NCI-H460 cells): 20.58 ± 1.66%
- Inhibitory rates (%) (Hep-G2 cells [1]): 13.64 ± 2.03%
- Inhibitory rates (%) (HL-7702 cells): 15.03 ± 0.65%

Molecule: Nc1ccc2ccnc3c2c1C(=O)c1ccccc1-3.[Cl-].[Cl-].[Ni+2]
- Pu22DC50 [8]: 7.63
- c-kit-2DC50 [2]: 3.61
- c-kit-1DC50 [9]: 9.11
- Pu27DC50 [10]: 1.31
- HTG21DC50 [5]: 3.35
- ds26DC50 [7]: 37.01

Molecule: CS(C)=O.O=C1c2c([c-]ccc2Cl)-c2nccc3cccc1c23.[Cl-].[Pt+2]
- Pu22DC50 [8]: 99.81
- c-kit-2DC50 [2]: 87.29
- c-kit-1DC50 [9]: 90.02
- Pu27DC50 [10]: 60.02
- HTG21DC50 [5]: 70.83
- ds26DC50 [7]: 96.11

Molecule: Nc1ccc2ccnc3c2c1C(=O)c1ccccc1-3.[Cl-].[Cl-].[Pd+2]
- Pu22DC50 [8]: 9.09
- c-kit-2DC50 [2]: 5.01
- c-kit-1DC50 [9]: 18.75
- Pu27DC50 [10]: 3.88
- HTG21DC50 [5]: 3.91
- ds26DC50 [7]: 21.76

Molecule: Nc1cccc2c1C(=O)c1cccc3ccnc-2c13.[Cl-].[Cl-].[Ni+2]
- Pu22DC50 [8]: 90.18
- c-kit-2DC50 [2]: 45.30
- HTG21DC50 [15]: 26.45
- ds26DC50 [16]: 70.46
- c-kit-1DC50 [9]: 73.65
- Pu27DC50 [10]: 14.22
